Measurements taken from US20100040679A1, “Compositions for Reducing Nicotine Withdrawal Symptoms and/or Tobacco Usage” (priority 2006, published 2010).

Experiments:
[1] = rat brain after peripheral nicotine administration; Dwoskin et al 1999; cited from earlier work
[2] = system: mecamylamine-precipitated nicotine withdrawal syndrome; assay: previous study of mecamylamine-precipitated nicotine withdrawal syndrome; type: in vivo; settings: dose 1 mg/kg, given alone
Method: (§1) All subjects were rendered nicotine dependent by seven days infusion with 9 mg/kg/day nicotine bitartrate (3.15 mg/kg expressed as the base) in saline from the subcutaneous minipump. On the 7th day of infusion, each subject received two subcutaneous injections. Group 1 (n=8) received two injections of saline vehicle only. Group 2 (n=7) received a subcutaneous injection of saline and an subcutaneous injection of 1 mg/kg cotinine in saline. Group 3 (n=8) received a subcutaneous injection of saline and a subcutaneous injection of 1 mg/kg dextromethorphan. Group 4 (n=7) received a subcutaneous injection of 1 mg/kg cotinine and 1 mg/kg dextromethorphan. […] These low doses were intended to prevent any ceiling effect which may have masked the benefit of adding a second medication. The injection volumes in every case were 1 mg/kg.

nicotine dependent rats = assay: mecamylamine-precipitated nicotine abstinence signs in nicotine dependent rats; type: in vivo, Sprague-Dawley rats; settings: 1 mg/kg subcutaneous; 30 minutes; FIG. 2
Method: A study was conducted to compare the effects of low doses of dextromethorphan (1 mg/kg) alone, cotinine (1 mg/kg) alone, and a dextromethorphan plus cotinine combination (1 mg/kg each) versus placebo (saline) for their effect on nicotine dependence. The subjects were 30 male Sprague-Dawley rats, weighing between 282-372 grams each. All subjects were implanted subcutaneously with an Alza 2ML1 osmotic minipump under aseptic conditions and halothane anesthesia.
as §1, with “[…]. […]” for “mg/kg.”

[3] = humans; estimated by Benowitz 1983; cited from earlier work

Row | Compound | abundance as nicotine metabolite in brain [1] | effects in reducing mecamylamine-precipitated nicotine withdrawal syndrome [2] | Miscellaneous Less-Frequent Signs (category of nicotine abstinence signs) (nicotine dependent rats) | systemically absorbed nicotine metabolized to cotinine [3]
1 | CN1C(=O)CC[C@H]1c1cccnc1 [cotinine] | most abundant metabolite in rat brain | only minimal effects | tied for lowest | –
2 | COc1ccc2c(c1)[C@]13CCCC[C@@H]1[C@H](C2)N(C)CC3 [dextromethorphan, reference compound] | – | only minimal effects | – | –
3 | CN1CCCC1c1cccnc1 (centres unmarked) [nicotine] | – | – | – | 86%
